Consider 16 molecules from ChEMBL document CHEMBL4808226, “Optimization of the Urea Linker of Triazolopyridazine MMV665917 Results in a New Anticryptosporidial Lead with Improved Potency and Predicted hERG Safety Margin” (J Med Chem, 2021).

In brackets after ≈: the same amount, converted by molar mass. A value given as a limit tells only on which side of the number the result lay.

Usually inhibition stands for the share of the control response that was lost under treatment. A low value points to little suppression. Usually half-life stands for the time needed for the level to fall by half in the phase considered. A word on the EC50: it is the concentration giving half of the maximal effect. Read a high EC50 as a less potent agent. Broadly, the efflux ratio is the permeability from basolateral to apical divided by that in the opposite direction, in the common usage.

Data set [1] has as its target hERG (KCNH2) (Homo sapiens, UniProt Q12809). The experiment in a line: Displacement of [3H]-dofetilide from human ERG at 10 uM relative to control. The conditions noted are these: probe [3H]-dofetilide.
Data set [2] can be described thus: Metabolic stability in human liver microsomes assessed as half life at 2 uM measured up to 30 mins in presence of NADPH by LC-MS/MS analysis. Type of data set: ADME, Microsome. The conditions noted are these: for t1/2: microsomes, 0.5 h, 2 µM.
For data set [3], the system named is Cryptosporidium parvum. Briefly: Anti-cryptosporidial activity against Cryptosporidium parvum infected in HCT-8 cells pre-infected for 3 hrs followed by compound treatment and measured after 45 hrs by fluorescence microscopy analysis. It is filed as functional, organism-based.
Data set [4] concerns MDR1 (P-gp). The experiment in a line: (§1) Efflux ratio of apparent permeability across basolateral to apical side over apical to basolateral side in […] cells at 10 uM after 2 hrs. It is filed as ADME, cell-based. The conditions noted are these: MDCK-MDR1.
Data set [5] in a line: Kinetic aqueous solubility of the compound in pH 7.4. It is filed as physicochemical. The conditions noted are these: buffer, read-out: Kinetic_solubility.
Data set [6] can be described thus: as §1. Type of data set: ADME, cell-based. The conditions noted are these: mdckii-mdr1, 2 h, 10 µM.
A short description of data set [7]: Metabolic stability in mouse liver microsomes assessed as half life at 2 uM measured up to 30 mins in presence of NADPH by LC-MS/MS analysis. Type of data set: ADME, Microsome. The conditions noted are these: 0.5 h.

Chain of hERG (KCNH2) (Q12809 whole entry): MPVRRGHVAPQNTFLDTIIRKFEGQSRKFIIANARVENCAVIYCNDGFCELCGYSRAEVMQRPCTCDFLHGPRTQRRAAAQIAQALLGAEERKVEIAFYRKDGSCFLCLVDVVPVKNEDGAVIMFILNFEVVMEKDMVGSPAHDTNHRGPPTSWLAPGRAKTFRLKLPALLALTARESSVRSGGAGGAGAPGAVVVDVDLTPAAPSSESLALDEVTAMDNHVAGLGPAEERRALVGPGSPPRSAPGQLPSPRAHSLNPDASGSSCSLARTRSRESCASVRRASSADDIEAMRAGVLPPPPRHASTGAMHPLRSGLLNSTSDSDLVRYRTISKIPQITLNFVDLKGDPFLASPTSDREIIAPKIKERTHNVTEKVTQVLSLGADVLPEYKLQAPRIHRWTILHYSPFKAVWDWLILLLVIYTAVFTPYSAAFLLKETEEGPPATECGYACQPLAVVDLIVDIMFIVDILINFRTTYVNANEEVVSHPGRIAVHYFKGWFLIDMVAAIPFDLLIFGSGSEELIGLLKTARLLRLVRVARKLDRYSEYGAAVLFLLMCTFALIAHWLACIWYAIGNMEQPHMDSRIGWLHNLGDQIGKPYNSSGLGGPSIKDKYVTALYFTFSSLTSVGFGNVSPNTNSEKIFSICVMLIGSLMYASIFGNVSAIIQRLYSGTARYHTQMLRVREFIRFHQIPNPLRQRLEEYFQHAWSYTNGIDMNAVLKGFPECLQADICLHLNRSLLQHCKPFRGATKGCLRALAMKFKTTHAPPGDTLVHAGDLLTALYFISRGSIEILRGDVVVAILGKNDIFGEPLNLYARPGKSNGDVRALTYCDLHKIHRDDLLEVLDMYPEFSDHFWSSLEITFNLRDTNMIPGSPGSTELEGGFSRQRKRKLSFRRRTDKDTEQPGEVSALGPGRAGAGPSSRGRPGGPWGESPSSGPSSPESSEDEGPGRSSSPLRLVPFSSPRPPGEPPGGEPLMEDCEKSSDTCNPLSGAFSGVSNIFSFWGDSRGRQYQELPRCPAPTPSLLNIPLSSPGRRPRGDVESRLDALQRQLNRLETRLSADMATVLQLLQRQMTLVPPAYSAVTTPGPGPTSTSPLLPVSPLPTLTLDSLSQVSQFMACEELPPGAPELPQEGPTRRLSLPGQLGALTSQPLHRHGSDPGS

Take `O=C(Nc1ccc(Cl)c(Cl)c1)N1CC=C(c2ccc3nncn3n2)CC1`: the inhibition at 10 µM in data set [1] worked out at 56%. Besides, in data set [2] (liver microsomes), the half-life at 2 µM was greater than 30 min. In addition, the EC50 in data set [3] was found to be 0.61 µM. The efflux ratio at 2 h, 10 µM in data set [4] worked out at 6.5. In addition, the solubility kinetic in data set [5] is 59 µM (≈ 23 µg/mL).

On to `O=C(Cc1ccc(F)cc1)N1CCN(c2ccc3nncn3n2)CC1`, for which, in data set [3], the EC50 is 0.86 µM.

Turning to `O=C(Cc1ccccc1)N1CCN(c2ccc3nncn3n2)CC1`, in data set [1], at 10 µM the inhibition was 4%. This molecule also gave an EC50 in data set [3] of 22 µM. Regarding `O=C(Cc1ccc(Cl)c(Cl)c1)N1CCC(Nc2ccc3nncn3n2)CC1`, the EC50 in data set [3] was greater than 25 µM. On the same count and under the same terms, next, `O=C(Nc1ccc(Cl)c(Cl)c1)N1CCCN(c2ccc3nncn3n2)CC1`: greater than 25 µM; `O=C(NC1CCN(c2ccc3nncn3n2)CC1)c1ccc(Cl)c(Cl)c1`: 12 µM. On the same count and under the same terms, with `O=C(N1CCN(c2ccc3nncn3n2)CC1)C1(c2ccc(Cl)c(Cl)c2)CC1` the figure was 8.5 µM; with `COc1cccc(CC(=O)N2CCN(c3ccc4nncn4n3)CC2)c1`, 18 µM. In data set [3], `CC1CN(c2ccc3nncn3n2)CCN1C(=O)Cc1ccc(Cl)c(Cl)c1` (centres undefined) registered an EC50 of 7.1 µM. For `O=C(Cc1ccc(Cl)c(Cl)c1)N1CC=C(c2ccc3nncn3n2)CC1`, the inhibition at 10 µM in data set [1] was 9%. Besides, the half-maximal effective concentration (EC50) in data set [3] stood at 16 µM. `COc1ccc(CC(=O)N2CCN(c3ccc4nncn4n3)CC2)cc1`: a half-maximal effect in data set [3] (EC50) was put at 17 µM. Regarding `O=C(Cc1cccc(Cl)c1)N1CCN(c2ccc3nncn3n2)CC1`, the EC50 in data set [3] was found to be 3.5 µM. Same read-out and setting: with `O=C(Cc1ccc(Cl)c(Cl)c1)N1CCCN(c2ccc3nncn3n2)CC1` the figure was 12 µM. `O=C(Nc1ccc(Cl)c(Cl)c1)N1CCC(c2ccc3nncn3n2)CC1`: the t1/2 in data set [2] is greater than 30 min. The same molecule had an EC50 in data set [3] of 7 µM. The Ratio in data set [6] came to 6.6. In turn, `O=C(Cc1ccc(Cl)cc1)N1CCN(c2ccc3nncn3n2)CC1` had an inhibition at 10 µM in data set [1] of 2%. The t1/2 in data set [2] and in data set [7] was greater than 30 min throughout. The molecule further displayed an EC50 in data set [3] of 0.66 µM. In data set [6], the Ratio was 3. Moreover, in data set [5], the solubility kinetic is 10 µM (≈ 3.57 µg/mL). Regarding `O=C(c1ccc(Cl)c(Cl)c1)N1CCN(c2ccc3nncn3n2)CC1`, the EC50 in data set [3] is greater than 25 µM.
